From the supplement of paper PMC13380429
± gives the standard deviation of the averaged measurements.

How the values were obtained:
Details in all cases: 72 h
Caco-2 [1] = test: cell viability relative to DMSO; higher = less toxic
Calu-3 [2] = test: as above
HepG2 [3] = test: as above
U2OS [4] = test: as above
Vero E6 [5] = test: as above
Caco-2 [6] = test: relative viability EC50 (midpoint between 100% and the lowest measured viability); higher = less toxic
Calu-3 [7] = test: as above
HepG2 [8] = test: as above
U2OS [9] = test: as above
Vero E6 [10] = test: as above
Caco-2 [11] = test: drug sensitivity score (DSS) for viability; higher = more toxic; extreme values may be limits of the assay
Calu-3 [12] = test: as above
HepG2 [13] = test: as above
U2OS [14] = test: as above
Vero E6 [15] = test: as above

SMILES	cell viability (Caco-2 [1]; 1 nM) [%]	cell viability (Caco-2 [1]; 10 nM) [%]	cell viability (Caco-2 [1]; 100 nM) [%]	cell viability (Caco-2 [1]; 1000 nM) [%]	cell viability (Caco-2 [1]; 10000 nM) [%]	cell viability (Calu-3 [2]; 1 nM) [%]	cell viability (Calu-3 [2]; 10 nM) [%]	cell viability (Calu-3 [2]; 100 nM) [%]	cell viability (Calu-3 [2]; 1000 nM) [%]	cell viability (Calu-3 [2]; 10000 nM) [%]	cell viability (HepG2 [3]; 1 nM) [%]	cell viability (HepG2 [3]; 10 nM) [%]	cell viability (HepG2 [3]; 100 nM) [%]	cell viability (HepG2 [3]; 1000 nM) [%]	cell viability (HepG2 [3]; 10000 nM) [%]	cell viability (U2OS [4]; 1 nM) [%]	cell viability (U2OS [4]; 10 nM) [%]	cell viability (U2OS [4]; 100 nM) [%]	cell viability (U2OS [4]; 1000 nM) [%]	cell viability (U2OS [4]; 10000 nM) [%]	cell viability (Vero E6 [5]; 1 nM) [%]	cell viability (Vero E6 [5]; 10 nM) [%]	cell viability (Vero E6 [5]; 100 nM) [%]	cell viability (Vero E6 [5]; 1000 nM) [%]	cell viability (Vero E6 [5]; 10000 nM) [%]	relative viability EC50 (Caco-2 [6]) [µM]	relative viability EC50 (Calu-3 [7]) [µM]	relative viability EC50 (HepG2 [8]) [µM]	relative viability EC50 (U2OS [9]) [µM]	relative viability EC50 (Vero E6 [10]) [µM]	drug sensitivity score (Caco-2 [11])	drug sensitivity score (Calu-3 [12])	drug sensitivity score (HepG2 [13])	drug sensitivity score (U2OS [14])	drug sensitivity score (Vero E6 [15])
CC(C)Cc1ccc(C(C)C(=O)O)cc1 (stereo not given) [ibuprofen]	97.4 ± 5.4	98.1 ± 3.7	95.9 ± 2	103 ± 4.1	104 ± 3.2	105 ± 5.7	98.9 ± 6.4	93 ± 1.3	94.6 ± 8.3	102 ± 7.8	110 ± 5.8	96.3 ± 1.8	104 ± 8.1	102 ± 5.4	108 ± 9.9	99.7 ± 3.4	103 ± 4.4	100.6 ± 0.96	102 ± 2.5	105 ± 2.5	96.9 ± 0.57	96.9 ± 2.5	94.95 ± 0.071	92.2 ± 2.9	104.25 ± 0.071	> 10	> 10	> 10	> 10	> 10	0	0	0	0	0
O=C(NC1CCN(CCc2c[nH]c3ccccc23)CC1)c1ccccc1 [indoramin]	89.4	98.2	101	101	99.5	90.4	92.8	103	101	107	100	92.9	105	98.9	95.9	95.3	99.3	97.5	104	100	96.7	94.4	98.7	99.7	102	> 10	> 10	> 10	> 10	> 10	0	0	0	0	0
O=C(O)CSc1nnc(Br)n1-c1ccc(C2CC2)c2ccccc12 [lesinurad]	98.4	90.9	91.4	94	99.7	99	101	106	95.5	102	98.8	102	99.4	84.8	99.7	99.6	103	95.2	95.9	96.3	99.4	100	99.9	102	99.5	> 10	> 10	> 10	> 10	> 10	0	0	0	0	0
Nc1nc(=O)c2c([nH]1)NCC(CNc1ccc(C(=O)N[C@@H](CCC(=O)O)C(=O)O)cc1)N2C=O (stereo not given in full) [leucovorin]	92 ± 1.3	94.5 ± 6.2	89.6 ± 2.3	100.3 ± 0.92	100 ± 2	103 ± 15	96.9 ± 7.9	97.45 ± 0.78	99.3 ± 1.7	105 ± 7.5	116	96.5	100	108	97.5	108	98.9	98.1	95.6	99.2	101 ± 3.2	98.2 ± 5.1	104 ± 1.4	97.2 ± 2	101 ± 6.8	> 10	> 10	> 10	> 10	> 10	0	0	0	0	0
NC(=O)N1c2ccccc2CC(O)c2ccccc21 (stereo not given) [licarbazepine]	98.3	99.5	97.8	100	91.5	98.3	99.9	96.3	105	92.1	96.3	96.4	93.5	108	99	108	97.5	98.8	101	102	101	102	104	97.6	97.8	> 10	> 10	> 10	> 10	> 10	0	0	0	0	0
CN1C(C(=O)Nc2ccccn2)=C(O)c2sc(Cl)cc2S1(=O)=O [lornoxicam]	110	95	99.9	86.6	95.5	95.3	100	107	99.8	104	91.1	104	100	104	97.4	100	93.8	102	94.7	100	92.4	98.8	94.8	97.1	91.3	> 10	> 10	> 10	> 10	> 10	0	0	0	0	0
CCCCc1nc(Cl)c(CO)n1Cc1ccc(-c2ccccc2-c2nnn[nH]2)cc1 [losartan]	94.1	102	93.2	94.7	95.5	103	84.4	96.2	97.5	94.6	110	116	104	96.7	96.7	99.1	104	96.4	105	96.5	103	102	102	98.1	101	> 10	> 10	> 10	> 10	> 10	0	0	0	0	0
Cc1cccc(CN2CCN(C(c3ccccc3)c3ccc(Cl)cc3)CC2)c1 (stereo not given) [meclizine]	91.9	101	97.1	99.5	85.8	92.7	88.4	95.7	94.1	87.6	102	108	106	92.3	90	96.5	98.6	93.6	101	91.6	107	105	103	102	97.7	> 10	> 10	> 10	> 10	> 10	0.2	0	0	0	0
CC(=O)[C@@]1(O)CC[C@H]2[C@@H]3C[C@H](C)C4=CC(=O)CC[C@]4(C)[C@H]3CC[C@@]21C [medroxyprogesterone]	96.8	96.7	92.4	91.7	89.1	86.5	104	95.6	104	103	94.7	98.5	103	106	84.1	105	97.3	97.5	94.4	94.8	105	99.5	98.1	99	89	> 10	> 10	> 10	> 10	> 10	0	0	0.2	0	0
C[N@+]1(CC2CC2)CC[C@]23c4c5ccc(O)c4O[C@H]2C(=O)CC[C@@]3(O)[C@H]1C5 [methylnaltrexone]	101	95.6	99.8	94.2	90.8	104	95	107	97.1	103	93.2	97.7	91.9	96.8	92.3	104	95.2	98.4	97.5	99.6	97.3	105	96.9	97.2	94.5	> 10	> 10	> 10	> 10	> 10	0	0	0	0	0
Cc1ncc([N+](=O)[O-])n1CCO [metronidazole]	100	94.4	101	94.9	98.4	97.3	95.9	109	97	102	97.7	102	111	99.8	105	104	97.6	98.9	96.9	98	96.8	99.7	96.2	93.5	100	> 10	> 10	> 10	> 10	> 10	0	0	0	0	0
CCOC(=O)Nc1ccc2c(c1)N(C(=O)CCN1CCOCC1)c1ccccc1S2 [moracizine]	101	109	96.3	96.8	80.8	103	95.3	98.8	95.3	98.3	94.6	92.6	97.8	91.6	99.4	98.4	104	101	99	96.6	97.1	101	96.9	98.8	96.2	> 10	> 10	> 10	> 10	> 10	0.9	0	0	0	0
CN1CCOC(c2ccccc2)c2ccccc2C1 (stereo not given) [nefopam]	86.6	102	95.1	99.5	91.9	105	108	96.7	91	101	95.8	104	96.3	101	106	104	99.3	105	100	98.7	95.9	103	98.8	102	95.1	> 10	> 10	> 10	> 10	> 10	0	0	0	0	0
CC(=O)Nc1ncc([N+](=O)[O-])s1 [nithiamide]	96.7	97.8	103	105	94.1	97.5	98.2	102	110	101	108	91.7	95.4	92.1	96.3	99.2	104	97.8	103	102	101	99.5	100	93.4	98	> 10	> 10	> 10	> 10	> 10	0	0	0	0	0
